These results are taken from paper PMC11091072, “Targeting bacterial nickel transport with aspergillomarasmine A suppresses virulence-associated Ni-dependent enzymes” (Nature Communications, 2024).

Series [1] has as its system K. pneumoniae urease activity (whole cell). The series is described as follows: microbe, parasite or virus in culture. It is filed as cell-based, Klebsiella pneumoniae ATCC 33495. To be noted: for EC50: Klebsiella pneumoniae, read-out: EC50, half-maximal effective concentration required to suppress urease-dependent pH change.
The target of series [2] is NikA (Klebsiella pneumoniae, UniProt A6TFA3). The class given is binding. To be noted: for n (stoichiometry, ITC) / ∆H / −T∆S: 37 °C; for n (stoichiometry, ITC) / ∆H / −T∆S / -∆TS: pH 7.5; for -∆TS: Fig S13, 37 °C; for Kd: read-out: KD for NikA (ITC), 25 mM Tris-HCl, 150 mM NaCl, 0.1% Triton X-100, pH 7.5, 37 °C; for fold improvement of affinity for NikA: relative to Zn-AMA.
Sequence of NikA (A6TFA3 entry or part of it): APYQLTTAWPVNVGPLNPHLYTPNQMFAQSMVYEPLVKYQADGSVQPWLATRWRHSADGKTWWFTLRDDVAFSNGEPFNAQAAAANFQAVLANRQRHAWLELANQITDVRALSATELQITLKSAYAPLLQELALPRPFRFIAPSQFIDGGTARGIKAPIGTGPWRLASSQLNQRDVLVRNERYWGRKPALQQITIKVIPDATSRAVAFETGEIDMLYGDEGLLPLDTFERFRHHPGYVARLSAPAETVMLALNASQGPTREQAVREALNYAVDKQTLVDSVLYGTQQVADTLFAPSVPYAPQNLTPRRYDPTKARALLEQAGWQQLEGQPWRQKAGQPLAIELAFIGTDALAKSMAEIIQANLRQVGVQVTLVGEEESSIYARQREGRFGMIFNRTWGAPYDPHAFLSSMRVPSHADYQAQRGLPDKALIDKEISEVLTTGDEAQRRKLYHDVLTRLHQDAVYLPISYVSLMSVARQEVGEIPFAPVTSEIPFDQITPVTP

Series [3] has as its system HEK293 cells. Kind of series: HEK293 cytotoxicity assay (Cell Titer Glo 2.0). Background: In ATP-based viability assays light output follows the ATP content of the culture.
Series [4] has as its system K. pneumoniae urease activity (whole cell). The series is described as follows: Checkerboard analysis of Zn-AMA and AHA on urease activity. It is filed as cell-based, Klebsiella pneumoniae. As to conditions: Zn-AMA 0 μM. Here is the method:
To guide our exploration of the mode of action of Zn-AMA, we investigated whether a chemical-chemical interaction occurs with the urease inhibitor AHA. […] We subsequently performed inductively coupled plasma mass spectrometry (ICP-MS) analyses to evaluate the intracellular Ni^2+ and Zn^2+ content of K. pneumoniae.
K. pneumoniae whole-cell urease activity was determined with artificial urine containing 0.2% (w/v) casamino acids and 0.01% (w/v) phenol red in 96-well plates. For the growth of S. aureus in artificial urine, the medium was supplemented with 10% LB. After 20–24 hours of growth, bacteria were removed using 0.45 μm filter plates, and the final A550 of the medium was measured using a plate reader.
FIG S7 Evaluation of Zn-AMA as a direct inhibitor of urease. A) Checkerboard analysis of Zn-AMA and AHA on urease activity of K.
pneumoniae after growth for 24 h at 37 °C artificial urine. pH is represented by the color scale determined with phenol red. […]

Setting [5] is: K. pneumoniae, artificial urine.

The structures appear in SMILES notation. ≈ marks a conversion by molar mass, not a printed value. Where “and” joins values, the source holds several entries; their conditions need not be identical. Equal values may be shown once. Peptide text beside a SMILES is read from it. * marks the point of attachment. Cbz = O=C(OCc1ccccc1)*

By Kd is commonly meant the constant that tells how readily two partners part at equilibrium. For `N[C@@H](CN[C@@H](CN[C@@H](Cc1cnc[nH]1)C(=O)O)C(=O)O)C(=O)O.[Zn+2]` [Zn-AMA(His)], the “Urease-dependent pH change (pH)” value in series [1] is 7.86 and 7.89 and 7.93 and 7.91; in series [1] (Zn-AMA(His) 0.19 μM), 7.92 and 7.89; in series [1] (Zn-AMA(His) 0.39 μM), 7.95 and 7.91; in series [1] (Zn-AMA(His) 3.12 μM), 7.87 and 7.86; in series [1] (Zn-AMA(His) 6.25 μM), 7.78 and 7.90; in series [1] (Zn-AMA(His) 12.5 μM), 7.75 and 7.83. In addition, the “Urease-dependent pH change (pH)” value in series [1] (Zn-AMA(His) 25 μM) is 7.73 and 7.87; in series [1] (Zn-AMA(His) 50 μM) it was 7.68 and 7.86; in series [1] (Zn-AMA(His) 100 μM), 7.57 and 7.81; in series [1] (Zn-AMA(His) 200 μM) it was 7.66 and 7.82. Besides, the EC50 in series [1] (setting [5]) is over 200000 nM. Further, the “n (stoichiometry, ITC)” value in series [2] is listed as 0.76. Moreover, the “∆H” value in series [2] is on record as -13.1 kcal/mol. Moreover, the “−T∆S” value in series [2] was found to be 4.5 kcal/mol. Further, the “-∆TS” value in series [2] is 4.48. Besides, in series [2], the Kd stood at 800 ± 100 nM. Besides, the “fold improvement of affinity for NikA” value in series [2] turned out to be 7 fold.

Regarding `NC(=O)C[C@H](NC[C@H](NC[C@H](N)C(=O)O)C(=O)O)C(=O)O.[Zn+2]` [Zn-AMA(Asn)], the “Urease-dependent pH change (pH)” value in series [1] is 7.81 and 7.93 and 7.88 and 7.95; in series [1] (Zn-AMA(Asn) 0.19 μM) it was 7.83 and 7.99; in series [1] (Zn-AMA(Asn) 0.39 μM) it was 7.94 and 7.95; in series [1] (Zn-AMA(Asn) 3.12 μM), 7.74 and 7.82; in series [1] (Zn-AMA(Asn) 6.25 μM), 7.67 and 7.74; in series [1] (Zn-AMA(Asn) 12.5 μM) it was 7.43 and 7.67. Moreover, the “Urease-dependent pH change (pH)” value in series [1] (Zn-AMA(Asn) 25 μM) was 7.11 and 7.36; in series [1] (Zn-AMA(Asn) 50 μM), 6.62 and 7.12; in series [1] (Zn-AMA(Asn) 100 μM) it was 6.33 and 6.91; in series [1] (Zn-AMA(Asn) 200 μM), 6.43 and 6.83. Besides, the EC50 in series [1] (setting [5]) was found to be 24000 ± 6000 nM. Besides, the “n (stoichiometry, ITC)” value in series [2] is 1.14. In addition, the “∆H” value in series [2] is on record as -13.1 kcal/mol. The “−T∆S” value in series [2] is reported as 4.7 kcal/mol. Further, in series [2], the “-∆TS” value turned out to be 4.73. Moreover, in series [2], the Kd was found to be 1300 ± 100 nM. Also, the “fold improvement of affinity for NikA” value in series [2] is given as 7 fold.

For orientation: IC50 means the midpoint of a concentration-inhibition curve. With `CC(C)C[C@@H](C=O)NC(=O)[C@H](CC(C)C)NC(=O)[C@H](CC(C)C)NC(=O)OCc1ccccc1` [MG132, reference compound] (Cbz-Leu-Leu-Leu-aldehyde), in series [3] (Homo sapiens, HEK293, 48 h, read-out: IC50 (HEK293 viability)), the half-maximal inhibitory concentration (IC50) was determined as 0.144 µg/mL (≈ 0.303 µM). For the same compound, the “HEK 293T cytotoxicity assay raw signal” value was 553546 and 645337 and 439066 in series [3] (MG-132 0.06 μg/mL); 287630 and 290638 and 251825 in series [3] (MG-132 0.12 μg/mL); 228174 and 211174 and 145724 in series [3] (MG-132 0.24 μg/mL); 127375 and 103739 and 100640 in series [3] (MG-132 0.49 μg/mL); 76026 and 78297 and 72041 in series [3] (MG-132 0.98 μg/mL); 47803 and 50917 and 47518 in series [3] (MG-132 1.95 μg/mL). For the same compound, the “HEK 293T cytotoxicity assay raw signal” value in series [3] (MG-132 7.81 μg/mL) was 52239 and 45457 and 61991; in series [3] (MG-132 15.63 μg/mL), 62587 and 49620 and 71962; in series [3] (MG-132 31.25 μg/mL), 50870 and 51533 and 85262.

Regarding `CC(=O)NO` [AHA, acetohydroxamic acid, reference compound], the “concentration required to achieve similar urease suppression” value in series [1] (K. pneumoniae, artificial urine, 24 h) is listed as 12.8 mM. The “Urease-dependent pH change (pH)” value is given as 7.94 in series [4] (AHA 0.1 mM); 8.07 in series [4] (AHA 0.2 mM); 7.88 in series [4] (AHA 0.4 mM); 8.25 in series [4] (AHA 0.5 mM); 7.28 in series [4] (AHA 0.8 mM); 6.77 in series [4] (AHA 1.6 mM).
